Activity calls are given as the source filed them.
How the values were obtained:
[1] = target: T1, Sentrin-specific protease 8 (Homo sapiens, UniProt Q96LD8); type: functional
T1 sequence (Q96LD8 whole entry): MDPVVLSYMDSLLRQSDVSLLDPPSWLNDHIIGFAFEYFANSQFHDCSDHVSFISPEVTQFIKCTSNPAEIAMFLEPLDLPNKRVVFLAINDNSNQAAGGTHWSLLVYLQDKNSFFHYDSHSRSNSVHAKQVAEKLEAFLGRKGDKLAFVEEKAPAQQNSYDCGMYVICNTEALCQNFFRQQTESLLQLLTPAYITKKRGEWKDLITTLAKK

[2] = target: T2, Sentrin-specific protease 6 (Homo sapiens, UniProt Q9GZR1); assay: SAR Analysis of small molecule inhibitors of Sentrin-specific protease 6 (SENP6) using a Luminescent assay. [Related pubchem assays (depositor defined):AID2582, AID2599]; type: functional
T2 sequence (Q9GZR1 whole entry): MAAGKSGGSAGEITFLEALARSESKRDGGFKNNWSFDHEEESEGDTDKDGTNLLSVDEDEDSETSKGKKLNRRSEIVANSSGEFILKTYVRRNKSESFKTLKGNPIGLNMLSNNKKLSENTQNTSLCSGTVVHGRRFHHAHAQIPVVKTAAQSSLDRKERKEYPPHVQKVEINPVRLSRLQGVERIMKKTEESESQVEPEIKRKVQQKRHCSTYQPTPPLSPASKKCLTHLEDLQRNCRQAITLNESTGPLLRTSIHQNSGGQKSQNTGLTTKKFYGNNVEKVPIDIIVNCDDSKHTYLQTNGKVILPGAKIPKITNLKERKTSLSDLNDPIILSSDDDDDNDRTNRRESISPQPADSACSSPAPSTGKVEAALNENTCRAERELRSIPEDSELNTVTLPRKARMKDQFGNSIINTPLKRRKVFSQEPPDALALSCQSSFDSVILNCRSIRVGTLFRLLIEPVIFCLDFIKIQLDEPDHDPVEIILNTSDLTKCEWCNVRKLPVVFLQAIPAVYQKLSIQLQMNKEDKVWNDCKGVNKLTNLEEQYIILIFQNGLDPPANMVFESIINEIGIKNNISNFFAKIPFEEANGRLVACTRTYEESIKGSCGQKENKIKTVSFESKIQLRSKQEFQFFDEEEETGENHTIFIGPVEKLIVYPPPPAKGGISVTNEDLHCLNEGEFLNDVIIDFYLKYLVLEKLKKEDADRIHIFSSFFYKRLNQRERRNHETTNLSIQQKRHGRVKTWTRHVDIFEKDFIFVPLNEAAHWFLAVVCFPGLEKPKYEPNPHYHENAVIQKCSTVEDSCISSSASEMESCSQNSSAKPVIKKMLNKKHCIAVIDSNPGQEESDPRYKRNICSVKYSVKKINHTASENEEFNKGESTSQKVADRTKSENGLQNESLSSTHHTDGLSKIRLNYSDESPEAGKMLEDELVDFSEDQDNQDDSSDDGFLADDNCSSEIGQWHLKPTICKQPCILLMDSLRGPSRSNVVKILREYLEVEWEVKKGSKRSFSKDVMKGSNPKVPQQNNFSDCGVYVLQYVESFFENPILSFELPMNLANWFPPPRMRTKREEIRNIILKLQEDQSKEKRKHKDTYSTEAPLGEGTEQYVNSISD

[3] = target: T1, Sentrin-specific protease 8; assay: SENP8 protease inhibitors, SAR follow-up, biochemical, luminescence (AID 504501); type: functional
Streptokinase A = target: T3, Streptokinase A (Streptococcus pyogenes serotype M1, UniProt P10520); assay: S. pyogenes streptokinase expression inhibitors, potency, dose response, plasminogen activation absorbance, OD405 (AID 1914); type: functional, Streptococcus pyogenes M1 GAS;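 also: secreted streptokinase activity via plasminogen activation per viability signal from cell pellet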
T3 sequence (P10520 whole entry): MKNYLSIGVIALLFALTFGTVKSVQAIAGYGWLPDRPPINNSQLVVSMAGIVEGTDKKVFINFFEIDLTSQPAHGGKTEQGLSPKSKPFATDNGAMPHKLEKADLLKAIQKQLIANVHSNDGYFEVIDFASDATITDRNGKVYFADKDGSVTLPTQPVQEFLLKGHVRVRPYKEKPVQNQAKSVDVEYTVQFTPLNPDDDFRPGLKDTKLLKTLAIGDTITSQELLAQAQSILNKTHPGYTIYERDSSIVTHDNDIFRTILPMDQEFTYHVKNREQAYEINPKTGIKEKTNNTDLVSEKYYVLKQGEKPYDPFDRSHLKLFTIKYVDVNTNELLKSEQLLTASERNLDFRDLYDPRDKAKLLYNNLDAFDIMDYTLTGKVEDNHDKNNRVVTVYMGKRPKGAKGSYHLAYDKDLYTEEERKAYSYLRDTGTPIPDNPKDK

[4] = target: Small ubiquitin-related modifier 2 (Homo sapiens, UniProt P61956); assay: SUMO2–SIM peptide binding inhibitors, dose response, selectivity assay for SUMO1 interaction inhibitor project, biochemical, fluorescence polarization, uHTS hits (AID 624385); type: functional; conditions: read-out: IC50_Mean
SUMO-activating enzyme = SUMO-activating enzyme (Homo sapiens, UniProt Q9UBT2); assay: inhibitors of in vitro SUMOylation cascade, primary screen, biochemical, HTRF, uHTS (AID 2006); type: protein-complex assay
[5] = Luminescence Cell-Based Dose Confirmation HTS to Identify Activators of 5'UTR Stem-Loop Driven Alpha-Synuclein mRNA Translation in H4 Neuroglioblastoma Cells. [Related pubchem assays: 1829 (Project Summary), 1814 (Primary HTS)]; type: functional
[6] = Luminescence Cell-Based Dose Retest to Confirm Activators of 5'UTR Stem-Loop Driven Alpha-Synuclein mRNA Translation in H4 Neuroglioblastoma Cells. [Related pubchem assays (depositor defined):AID1813, AID1829]; type: functional
[7] = Luminescence Cell-Based Dose Response HTS to Identify Activators of Luciferase Translation or Activity in H4-C Neuroglioblastoma Cells. [Related pubchem assays: 1829 (Project Summary), 1814 (Primary HTS)]; type: functional
[8] = target: T4, Heat shock factor protein 1 (Mus musculus, UniProt P38532); assay: HSF1 potentiators in luciferase reporter cells, confirmation, cell-based, NIH3T3, luminescence, dose retest (AID 435004); type: functional;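 also: stress induced by proteasome inhibitor MG132 added 30 min after compound; luciferase reporter driven by HSF1 response element in NIH3T3 cells; actives raise luminescence as potentiators of the MG132 stress response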
T4 sequence (P38532 whole entry): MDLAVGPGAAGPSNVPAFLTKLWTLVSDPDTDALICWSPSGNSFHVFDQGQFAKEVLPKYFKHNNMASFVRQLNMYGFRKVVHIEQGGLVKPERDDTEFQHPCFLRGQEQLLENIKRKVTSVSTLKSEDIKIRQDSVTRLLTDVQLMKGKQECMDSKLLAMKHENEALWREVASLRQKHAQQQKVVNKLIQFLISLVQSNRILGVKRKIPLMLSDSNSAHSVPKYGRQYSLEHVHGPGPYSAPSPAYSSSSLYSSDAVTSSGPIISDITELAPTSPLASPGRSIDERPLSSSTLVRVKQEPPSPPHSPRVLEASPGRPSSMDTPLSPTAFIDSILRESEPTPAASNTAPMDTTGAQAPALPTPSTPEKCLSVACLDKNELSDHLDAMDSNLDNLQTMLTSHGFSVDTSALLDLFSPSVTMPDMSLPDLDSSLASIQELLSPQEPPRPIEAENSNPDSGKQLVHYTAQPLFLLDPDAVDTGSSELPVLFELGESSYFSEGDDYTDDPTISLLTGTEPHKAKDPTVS

Sequence of Small ubiquitin-related modifier 2 (P61956 whole entry): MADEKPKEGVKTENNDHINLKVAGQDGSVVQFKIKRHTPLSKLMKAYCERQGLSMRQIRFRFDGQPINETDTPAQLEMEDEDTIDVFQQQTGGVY
Sequence of SUMO-activating enzyme (Q9UBE0 whole entry): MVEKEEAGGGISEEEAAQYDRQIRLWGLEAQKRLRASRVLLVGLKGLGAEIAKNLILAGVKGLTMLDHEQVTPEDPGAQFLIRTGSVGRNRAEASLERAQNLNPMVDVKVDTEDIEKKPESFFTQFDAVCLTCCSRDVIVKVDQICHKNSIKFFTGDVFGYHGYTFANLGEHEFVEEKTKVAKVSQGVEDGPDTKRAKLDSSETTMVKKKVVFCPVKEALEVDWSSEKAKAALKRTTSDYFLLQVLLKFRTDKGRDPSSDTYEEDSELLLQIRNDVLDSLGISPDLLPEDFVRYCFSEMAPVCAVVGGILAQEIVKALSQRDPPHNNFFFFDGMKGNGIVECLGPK
Sequence of SUMO-activating enzyme (Q9UBT2 whole entry): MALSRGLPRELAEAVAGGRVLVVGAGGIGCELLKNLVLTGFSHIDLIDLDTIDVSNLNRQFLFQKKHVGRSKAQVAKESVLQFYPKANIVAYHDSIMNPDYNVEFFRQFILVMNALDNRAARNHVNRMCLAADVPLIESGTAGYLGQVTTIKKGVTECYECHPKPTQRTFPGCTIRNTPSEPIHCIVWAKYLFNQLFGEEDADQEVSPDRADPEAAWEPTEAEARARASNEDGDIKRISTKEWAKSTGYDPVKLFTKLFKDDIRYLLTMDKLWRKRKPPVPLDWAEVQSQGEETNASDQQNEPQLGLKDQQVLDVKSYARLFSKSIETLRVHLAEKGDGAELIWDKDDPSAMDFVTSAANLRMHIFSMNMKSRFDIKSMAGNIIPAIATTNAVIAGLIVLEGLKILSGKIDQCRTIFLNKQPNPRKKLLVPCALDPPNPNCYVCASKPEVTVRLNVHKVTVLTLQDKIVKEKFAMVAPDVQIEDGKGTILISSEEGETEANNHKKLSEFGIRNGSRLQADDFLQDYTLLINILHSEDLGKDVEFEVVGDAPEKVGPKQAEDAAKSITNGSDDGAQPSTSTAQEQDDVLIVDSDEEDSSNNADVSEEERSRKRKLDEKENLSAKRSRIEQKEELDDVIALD

COc1cc(C(=O)c2nccc3cc(OC)c(OC)cc23)c([N+](=O)[O-])cc1OC
IC50 [1]: 14.8 µM (active) | IC50 [2]: 66.8 µM (active) | IC50 [3]: > 99 µM (inactive)

N#Cc1c(O)nc(SCC(=O)N2c3ccccc3Sc3ccccc32)nc1-c1ccccc1
EC50 (Streptokinase A): > 150 µM (not active) | IC50 [4]: 10.9 µM (active) | IC50 (SUMO-activating enzyme): 14.3 µM (active)

c1ccc2c(Nc3nnc(-c4ccncc4)s3)cccc2c1
EC50 [5]: 0.196 µM (active) | EC50 [6]: 2.04 µM (active) | EC50 [7]: 1.06 µM (active) | EC50 [8]: 42.1 µM (active)

— ChEMBL document CHEMBL1201862, “PubChem BioAssay data set” (2004)
